# The supplement of paper PMC10307832
# Tests used:
# Assay in all cases: relative viability (nuclei count vs DMSO), 5 days (fraction); higher = more cells survive
# [1] = compound: CC(C)C[C@H](NC(=O)[C@H](CCc1ccccc1)NC(=O)CN1CCOCC1)C(=O)N[C@@H](Cc1ccccc1)C(=O)N[C@@H](CC(C)C)C(=O)[C@@]1(C)CO1 [Carfilzomib] + N=C(N)NC(=N)NCCc1ccccc1 [Phenformin] (partner 250 µM)
# Procedure, shortened: (§1)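 Medians of duplicate plates are given as relative viability. That measure is the nuclei count in treated wells divided by the count in vehicle wells. Counts were taken on 4× images of lung cancer cell lines in 1536-well plates, 5 days after pin-tool dosing the day after seeding with one drug alone or a fixed anchor-drug dose plus five library-drug doses (not always all listed) in √10 steps.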
# [2] = compound: C[C@@H](Oc1cc(-c2cnn(C3CCNCC3)c2)cnc1N)c1c(Cl)ccc(F)c1Cl [Crizotinib] + Cc1nc(Nc2ncc(C(=O)Nc3c(C)cccc3Cl)s2)cc(N2CCN(CCO)CC2)n1 [Dasatinib] (partner 0.075 µM)
# Procedure, shortened: as §1
# [3] = compound: O=C(c1cc(Cc2n[nH]c(=O)c3ccccc23)ccc1F)N1CCN(C(=O)C2CC2)CC1 [Olaparib] + CC1(C)CCC(c2ccc(Cl)cc2)=C(CN2CCN(c3ccc(C(=O)NS(=O)(=O)c4ccc(N[C@H](CCN5CCOCC5)CSc5ccccc5)c(S(=O)(=O)C(F)(F)F)c4)cc3)CC2)C1 [Navitoclax] (partner 0.5 µM)
# Procedure, shortened: as §1
# [4] = compound: O=C(c1cc(Cc2n[nH]c(=O)c3ccccc23)ccc1F)N1CCN(C(=O)C2CC2)CC1 [Olaparib] + Cc1nc(Nc2ncc(C(=O)Nc3c(C)cccc3Cl)s2)cc(N2CCN(CCO)CC2)n1 [Dasatinib] (partner 0.075 µM)
# Procedure, shortened: as §1
# [5] = compound: O=C(c1cc(Cc2n[nH]c(=O)c3ccccc23)ccc1F)N1CCN(C(=O)C2CC2)CC1 [Olaparib] + Nc1ncn([C@H]2C[C@H](O)[C@@H](CO)O2)c(=O)n1 [Decitabine] (partner 2 µM)
# Procedure, shortened: as §1
cell line,measurement,setting,value
NCI-H1793,relative viability,[1]; first compound 0.003162 µM,0.404
same,relative viability,[1]; first compound 0.01 µM,0.296
same,relative viability,[1]; first compound 0.03162 µM,0.407
same,relative viability,[1]; first compound 0.1 µM,0.261
same,relative viability,[2]; first compound 0.03162 µM,0.401
same,relative viability,[2]; first compound 0.1 µM,0.382
same,relative viability,[2]; first compound 1 µM,0.369
same,relative viability,[3]; first compound 0.08 µM,0.406
same,relative viability,[3]; first compound 0.253 µM,0.421
same,relative viability,[3]; first compound 2.53 µM,0.416
same,relative viability,[3]; first compound 8 µM,0.385
same,relative viability,[4]; first compound 0.08 µM,0.377
same,relative viability,[4]; first compound 0.253 µM,0.38
same,relative viability,[4]; first compound 2.53 µM,0.353
same,relative viability,[4]; first compound 8 µM,0.303
same,relative viability,[5]; first compound 0.08 µM,0.338
same,relative viability,[5]; first compound 0.253 µM,0.417
same,relative viability,[5]; first compound 2.53 µM,0.337
same,relative viability,[5]; first compound 8 µM,0.326
